“Also recorded” adds a separate entry of the source.
Key:
[1] = tested on: primary acute myeloid leukaemia (AML) blasts; assay: In vitro cytotoxicity assay (annexin V apoptosis) in primary acute myeloid leukemia cells; format: cell-based, human
Experimental: NUC-1031 was assayed for its cytotoxic effects on primary cultures of acute myeloid leukaemia (AML) blasts. LD50 values (the concentration required to kill 50% of the tumour cells in culture) were calculated in respect of NUC-1031 and gemcitabine.
Bone marrow samples were collected in ethylenediaminetetraacetic acid (EDTA) from newly diagnosed, previously untreated, acute myeloid leukemia (AML) patients. AML blasts were enriched by density gradient centrifugation using Histopaque (Sigma, Poole, UK) and were subsequently maintained in Roswell Park Memorial Institute medium (RPMI) supplemented with 10% foetal bovine serum (FBS). Cells were treated with Gemcitabine or NUC-1031 at concentrations between 0.25 µM and 10 µM, and incubated for 48h. All cultures were maintained at 37° C. in a 5% CO2 humidified atmosphere.
Cells were harvested and labelled with CD34-fluorescein isothiocyanate (FITC) (BD Biosciences, Buckingham, UK) and then resuspended in 200 µl of binding buffer containing 4µl of annexin V labelled with allophycocyanin (APC) (eBioscience Ltd, Hatfield, UK). Apoptosis was quantified in the CD34^+ AML cells using an Accuri C6 flow cytometer (Becton Dickinson, CA, USA). At least 10,000 events were acquired and data were subsequently analysed using FlowJo software (Tree Star Inc., Ashland, OR, USA). All LD50 values (concentration of drug required to kill 50% of cells) were derived from the dose-response curves.

[2] = tested on: CD34^+/CD123^+ leukaemic stem cells; assay: Quantification of CD34+/CD123+ sub-populations in primary AML cells; format: cell-based, human
Experimental: Putative leukaemic stem cells were identified by dual expression of CD34 and CD123. The relative sensitivity of these cells to the effects of gemcitabine and NUC-1031 were assessed as a function of the percentage of these cells that remained viable following exposure to molar equivalents of each agent.

**Q.** For “gemcitabine-[phenyl-benzoxy-L-alaninyl)]-phosphate [NUC-1031]”, which “cytotoxic potency on CSCs and non-stem cancer cells compared with gemcitabine” value ([1]; AML blast cultures) is on record?
**A.** increased potency

**Q.** What about the “mean LD50” value ([1]; primary AML blasts, CD34+ cells, 48h, annexin V) of the same substance?
**A.** 1.6 µM

**Q.** And the “CD34^+/CD123^+ leukaemic stem cell viability as compared to gemcitabine” value ([2]; 1 µM and 2.5 µM)?
**A.** significant reductions

**Q.** What about the “depletion of CSCs (CD34^+/CD123^+ cells) compared with gemcitabine” value ([2]; AML blast cultures, micromolar concentrations) of the same substance?
**A.** enhanced ability to deplete CSCs; also recorded: preferentially depletes CD34^+/CD123^+ cells
